US20140221361A1, “C-19 MODIFIED TRITERPENOIDS WITH HIV MATURATION INHIBITORY ACTIVITY” (priority 2013, published 2014)

What follows are compounds tested on recombinant NL4-3 virus (Renilla luciferase in nef, Gag P373S) (assay: HIV cell culture assay (luciferase reporter, MT-2 cells)). Conditions: Renilla, NL43, MT-2 cells infected for 4-5 days with NLRluc recombinants; luciferase activity; serial dilutions of inhibitor.
Type: cell-based, HIV-1
How it was run: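 MT-2 cells infected with recombinant NL4-3 carrying Renilla luciferase in place of part of nef and Gag P373S, virus made by 293T transfection. Infection ran 4-5 days with serial inhibitor dilutions. Antiviral activity read as luciferase activity (Dual Luciferase reagents mixed with lysis buffer).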

| Compound | EC50 |
| --- | --- |
| CC1(C)C(c2ccc(C(=O)O)cc2)=CC[C@]2(C)[C@H]3CC[C@@H]4[C@H]5[C@H](N)CC[C@]5(NCCN5CCS(=O)(=O)CC5)CC[C@@]4(C)[C@]3(C)CC[C@@H]12 [Example B33, 4-((1R,3aR,5aR,5bR,7aR,11aS,11bR,13aR,13bS)-1-amino-3a-((2-(1,1-dioxidothiomorpholino)ethyl)amino)-5a,5b,8,8,11a-pentamethyl-2,3,3a,4,5,5a,5b,6,7,7a,8,11,11a,11b,12,13,13a,13b-octadecahydro-1H-cyclopenta[a]chrysen-9-yl)benzoic acid] | 130 nM |
| COCCS(=O)(=O)CCN(C)CCN[C@]12CC[C@@H](N(C)C)[C@@H]1[C@H]1CC[C@@H]3[C@@]4(C)CC=C(c5ccc(C(=O)O)cc5)C(C)(C)[C@@H]4CC[C@@]3(C)[C@]1(C)CC2 [Example B34] | 20 nM |
| CNC(C)[C@@H]1CC[C@]2(NCCN3CCS(=O)(=O)CC3)CC[C@]3(C)[C@H](CC[C@@H]4[C@@]5(C)CC=C(c6ccc(C(=O)O)cc6)C(C)(C)[C@@H]5CC[C@]43C)[C@@H]12 (stereo partly drawn) [Example B35, 4-((1R,3aS,5aR,5bR,7aR,11aS,11bR,13aR,13bS)-3a-((2-(1,1-dioxidothiomorpholino)ethyl)amino)-5a,5b,8,8,11a-pentamethyl-1-(1-(methylamino)ethyl)-2,3,3a,4,5,5a,5b,6,7,7a,8,11,11a,11b,12,13,13a,13b-octadecahydro-1H-cyclopenta[a]chrysen-9-yl)benzoic acid] | 4.24 nM |
| CC(=O)N[C@@H]1CC[C@]2(NCCN3CCS(=O)(=O)CC3)CC[C@]3(C)[C@H](CC[C@@H]4[C@@]5(C)CC=C(c6ccc(C(=O)O)cc6)C(C)(C)[C@@H]5CC[C@]43C)[C@@H]12 [Example B36, 4-((1R,3aR,5aR,5bR,7aR,11aS,11bR,13aR,13bS)-1-acetamido-3a-((2-(1,1-dioxidothiomorpholino)ethyl)amino)-5a,5b,8,8,11a-pentamethyl-2,3,3a,4,5,5a,5b,6,7,7a,8,11,11a,11b,12,13,13a,13b-octadecahydro-1H-cyclopenta[a]chrysen-9-yl)benzoic acid] | 6.29 nM |
| CN[C@@H]1CC[C@]2(NCCN3CCS(=O)(=O)CC3)CC[C@]3(C)[C@H](CC[C@@H]4[C@@]5(C)CC=C(c6ccc(C(=O)O)cc6)C(C)(C)[C@@H]5CC[C@]43C)[C@@H]12 [Example B37, 4-((1R,3aR,5aR,5bR,7aR,11aS,11bR,13aR,13bS)-3a-((2-(1,1-dioxidothiomorpholino)ethyl)amino)-5a,5b,8,8,11a-pentamethyl-1-(methylamino)-2,3,3a,4,5,5a,5b,6,7,7a,8,11,11a,11b,12,13,13a,13b-octadecahydro-1H-cyclopenta[a]chrysen-9-yl)benzoic acid] | 40 nM |
| CN(C)[C@@H]1CC[C@]2(NCCN3CCS(=O)(=O)CC3)CC[C@]3(C)[C@H](CC[C@@H]4[C@@]5(C)CC=C(c6ccc(C(=O)O)cc6)C(C)(C)[C@@H]5CC[C@]43C)[C@@H]12 [Example B38, 4-((1R,3aR,5aR,5bR,7aR,11aS,11bR,13aR,13bS)-1-(dimethylamino)-3a-((2-(1,1-dioxidothiomorpholino)ethyl)amino)-5a,5b,8,8,11a-pentamethyl-2,3,3a,4,5,5a,5b,6,7,7a,8,11,11a,11b,12,13,13a,13b-octadecahydro-1H-cyclopenta[a]chrysen-9-yl)benzoic acid] | 10 nM |
| CC1(C)C(c2ccc(C(=O)O)cc2)=CC[C@]2(C)[C@H]3CC[C@@H]4[C@H]5[C@H](CO)CC[C@]5(NCCN5CCS(=O)(=O)CC5)CC[C@@]4(C)[C@]3(C)CC[C@@H]12 [Example B42, 4-((1R,3aS,5aR,5bR,7aR,11aS,11bR,13aR,13bS)-3a-((2-(1,1-dioxidothiomorpholino)ethyl)amino)-1-(hydroxymethyl)-5a,5b,8,8,11a-pentamethyl-2,3,3a,4,5,5a,5b,6,7,7a,8,11,11a,11b,12,13,13a,13b-octadecahydro-1H-cyclopenta[a]chrysen-9-yl)benzoic acid] | 40 nM |
| CC1(C)C(c2ccc(C(=O)O)cc2)=CC[C@]2(C)[C@H]3CC[C@@H]4[C@H]5[C@H](NC(=O)C(F)(F)F)CC[C@]5(NCCN5CCS(=O)(=O)CC5)CC[C@@]4(C)[C@]3(C)CC[C@@H]12 [Example B43, 4-((1R,3aR,5aR,5bR,7aR,11aS,11bR,13aR,13bS)-3a-((2-(1,1-dioxidothiomorpholino)ethyl)amino)-5a,5b,8,8,11a-pentamethyl-1-(2,2,2-trifluoroacetamido)-2,3,3a,4,5,5a,5b,6,7,7a,8,11,11a,11b,12,13,13a,13b-octadecahydro-1H-cyclopenta[a]chrysen-9-yl)benzoic acid] | 2.12 nM |
| CN(C(=O)C(F)(F)F)[C@@H]1CC[C@]2(NCCN3CCS(=O)(=O)CC3)CC[C@]3(C)[C@H](CC[C@@H]4[C@@]5(C)CC=C(c6ccc(C(=O)O)cc6)C(C)(C)[C@@H]5CC[C@]43C)[C@@H]12 [Example B44, 4-((1R,3aR,5aR,5bR,7aR,11aS,11bR,13aR,13bS)-3a-((2-(1,1-dioxidothiomorpholino)ethyl)amino)-5a,5b,8,8,11a-pentamethyl-1-(2,2,2-trifluoro-N-methylacetamido)-2,3,3a,4,5,5a,5b,6,7,7a,8,11,11a,11b,12,13,13a,13b-octadecahydro-1H-cyclopenta[a]chrysen-9-yl)benzoic acid] | 5.92 nM |
| CC1(C)C(c2ccc(C(=O)O)cc2)=CC[C@]2(C)[C@H]3CC[C@@H]4[C@H]5[C@H](NC(=O)c6ccc(C7(C(F)(F)F)N=N7)cc6)CC[C@]5(NCCN5CCS(=O)(=O)CC5)CC[C@@]4(C)[C@]3(C)CC[C@@H]12 [Example B45, 4-((1R,3aR,5aR,5bR,7aR,11aS,11bR,13aR,13bS)-3a-((2-(1,1-dioxidothiomorpholino)ethyl)amino)-5a,5b,8,8,11a-pentamethyl-1-(4-(3-(trifluoromethyl)-3H-diazirin-3-yl)benzamido)-2,3,3a,4,5,5a,5b,6,7,7a,8,11,11a,11b,12,13,13a,13b-octadecahydro-1H-cyclopenta[a]chrysen-9-yl)benzoic acid] | 50 nM |
| CC(=O)[C@@H]1CC[C@]2(N)CC[C@]3(C)[C@H](CC[C@@H]4[C@@]5(C)CC=C(c6ccc(C(=O)O)cc6)C(C)(C)[C@@H]5CC[C@]43C)[C@@H]12 [Example B46, 4-((1R,3aS,5aR,5bR,7aR,11aS,11bR,13aR,13bS)-1-acetyl-3a-amino-5a,5b,8,8,11a-pentamethyl-2,3,3a,4,5,5a,5b,6,7,7a,8,11,11a,11b,12,13,13a,13b-octadecahydro-1H-cyclopenta[a]chrysen-9-yl)benzoic acid] | 290 nM |
| CC(=O)[C@@H]1CC[C@]2(NCCN3CCS(=O)(=O)CC3)CC[C@]3(C)[C@H](CC[C@@H]4[C@@]5(C)CC=C(c6ccc(C(=O)O)cc6)C(C)(C)[C@@H]5CC[C@]43C)[C@@H]12 [Example B47, 4-((1R,3aS,5aR,5bR,7aR,11aS,11bR,13aR,13bS)-1-acetyl-3a-((2-(1,1-dioxidothiomorpholino)ethyl)amino)-5a,5b,8,8,11a-pentamethyl-2,3,3a,4,5,5a,5b,6,7,7a,8,11,11a,11b,12,13,13a,13b-octadecahydro-1H-cyclopenta[a]chrysen-9-yl)benzoic acid] | 10 nM |
| CC1([C@@H]2CC[C@]3(C(=O)O)CC[C@]4(C)[C@H](CC[C@@H]5[C@@]6(C)CC=C(c7ccc(C(=O)O)cc7)C(C)(C)[C@@H]6CC[C@]54C)[C@@H]23)CC1 [Example B48, (1R,3aS,5aR,5bR,7aR,11aS,11bR,13aR,13bR)-9-(4-carboxyphenyl)-5a,5b,8,8,11a-pentamethyl-1-(1-methylcyclopropyl)-2,3,3a,4,5,5a,5b,6,7,7a,8,11,11a,11b,12,13,13a,13b-octadecahydro-1H-cyclopenta[a]chrysene-3a-carboxylic acid] | 10 nM |
| CC1([C@@H]2CC[C@]3(N)CC[C@]4(C)[C@H](CC[C@@H]5[C@@]6(C)CC=C(c7ccc(C(=O)O)cc7)C(C)(C)[C@@H]6CC[C@]54C)[C@@H]23)CC1 [Example B49, 4-((1R,3aS,5aR,5bR,7aR,11aS,11bR,13aR,13bR)-3a-amino-5a,5b,8,8,11a-pentamethyl-1-(1-methylcyclopropyl)-2,3,3a,4,5,5a,5b,6,7,7a,8,11,11a,11b,12,13,13a,13b-octadecahydro-1H-cyclopenta[a]chrysen-9-yl)benzoic acid] | 0.985 nM |
| CN[C@]12CC[C@@H](C3(C)CC3)[C@@H]1[C@H]1CC[C@@H]3[C@@]4(C)CC=C(c5ccc(C(=O)O)cc5)C(C)(C)[C@@H]4CC[C@@]3(C)[C@]1(C)CC2 [Example B50, 4-((1R,3aS,5aR,5bR,7aR,11aS,11bR,13aR,13bR)-5a,5b,8,8,11a-pentamethyl-3a-(methylamino)-1-(1-methylcyclopropyl)-2,3,3a,4,5,5a,5b,6,7,7a,8,11,11a,11b,12,13,13a,13b-octadecahydro-1H-cyclopenta[a]chrysen-9-yl)benzoic acid] | 1.36 nM |
| CC1([C@@H]2CC[C@]3(NC(=O)CN4CCS(=O)(=O)CC4)CC[C@]4(C)[C@H](CC[C@@H]5[C@@]6(C)CC=C(c7ccc(C(=O)O)cc7)C(C)(C)[C@@H]6CC[C@]54C)[C@@H]23)CC1 [Example B51, 4-((1R,3aS,5aR,5bR,7aR,11aS,11bR,13aR,13bR)-3a-(2-(1,1-dioxidothiomorpholino)acetamido)-5a,5b,8,8,11a-pentamethyl-1-(1-methylcyclopropyl)-2,3,3a,4,5,5a,5b,6,7,7a,8,11,11a,11b,12,13,13a,13b-octadecahydro-1H-cyclopenta[a]chrysen-9-yl)benzoic acid] | 1.1 nM |
